# Data taken from patent publication US11008325B2, “Inhibitors of cancer invasion, attachment, and/or metastasis” (VIRGINIA COMMONWEALTH UNIVERSITY, priority 2016, dated 2021).
# Entries after “also recorded” stand apart in the source; their conditions may differ. Read-outs that look alike come from different tables or passages of the source.
# Experiments:
# EGFR = EGFR activation in PC cells; format: cell-based
# Experimental: Considering the key role of MDA-9/IGF-1R interactions in STAT-3 activation, which has a decisive impact on PC progression, small molecule inhibitors that bind to MDA-9 were tested for their ability to specifically interrupt MDA-9/IGF-1R interactions thereby affecting STAT3 activation and PC invasion. […] In PC cells, PDZ1i-mediated downregulation of c-Src activation is partially IGF-1R dependent. Another tyrosine kinase, EGFR, which is also an interacting partner of MDA-9, has been reported to activate c-Src in PC.
# RM1-Luc cells = assay: RM1-Luc intracardiac metastasis model; format: in vivo, C57BL/6 mice; details: I.P., 3 injections/first week
# Experimental: (§1) FIG. 19A-19F. PDZ1i suppresses prostate cancer metastasis and tumor progression. FIG. 19A) Survival data for athymic nude mice in which DMSO or PDZ1i pre-treated ARCaPM cells were injected. FIG. 19B) Survival data for athymic nude mice which were injected with (n=5, each group) ARCaPM-Luc (1×10^6 cells in 100 μl saline) through an intracardiac route. Mice received either vehicle or PDZ1i every alternative day (9 injections during the first […]) and maintained until they needed to be euthanized. FIG. 19C) Survival data for C57BL/6 mice injected through the intracardiac route with RM1-Luc. Vehicle or PDZ1i was administered through intraperitoneal injection every alternate day (total 3 injections during the first week). Survival curves were generated using 6 control vehicle-treated and 5 PDZ1i-treated. Kaplan—Meier survival curves were prepared using Graph Pad software. […] Graphical representation of the average prostate weights from control and treated groups. FIG. 19E and FIG. 19F) Photomicrographs representing the histological changes in prostate sections obtained from 6-month old Hi-Myc mice receiving either vehicle (FIG. 19E) or PDZ1i (FIG. 19F). To evaluate potential therapeutic efficacy of PDZ1i four sets of in vivo experiments were conducted. […]
# [1] = target: T1, MDA-9 PDZ12 tandem domain (PDZ1) (Homo sapiens, UniProt O00560); assay: NMR [15N,1H] HSQC chemical shift change and titration binding
# T1 construct: the MDA-9/Syntenin construct used for the screen contains both PDZ domains; made in house
# T1 sequence (O00560 110-274): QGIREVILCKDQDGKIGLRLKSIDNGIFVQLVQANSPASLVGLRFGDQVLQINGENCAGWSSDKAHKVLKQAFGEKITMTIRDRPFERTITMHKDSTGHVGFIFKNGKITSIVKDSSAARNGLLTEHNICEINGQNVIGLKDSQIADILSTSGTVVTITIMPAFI
# Experimental: FIGS. 4A-4E. FIG. 4A. […] FIG. 4B. Superposition of 2D [^15N, ^1H]-HSQC spectra of 50 μM MDA-9 PDZ12 tandem domain in the absence and presence of 350 μM 113B7. FIG. 4C. Binding curve and representative spectra for the titration of 113B7 against MDA-9 PDZ12 tandem domain. Top: Zoom of box region in FIG. 4B after titrating 113B7 into Mda9 PDZ, tandem domain. […] Bottom: Titration curve of 113B7 for residue A147. […] FIG. 4D. […] FIG. 4E. Docked structure of 113B7 in complex with MDA-9 PDZ tandem domain (PDB: 1W9E). The pose was obtained with GOLD. Two PDZ domains of MDA-9 are labeled.
# NMR based screening of an house assembled fragment library of about 5,000 compounds using [^15N,^1H] […] The proposed docked structure of PDZ1i in the PDZ1 domain and interdomain of MDA-9/Syntenin is shown in FIGS. 4A-4E and FIG. 5, while the chemical structure of PDZ1i is also shown in FIGS. 4A-4E and FIG. 5.
# In all binding assays, the MDA-9/Syntenin construct used for the screen contains both PDZ domains. Constructs uniformly labeled with ^15N and ^13C or ^13C-Met selectively labeled are used for binding, mapping and structural studies. These same proteins are used for ITC binding studies.
# [2] = toxicity in vivo in pre-clinical animal models; details: listed as PDZ1i
# prostate adenocarcinoma = assay: Hi-myc spontaneous prostate cancer transgenic model; format: in vivo, Hi-myc mice; details: 30 mg/kg I.P., 9 times for the first three weeks
# Experimental: as §1
# melanocytes = assay: toxicity to melanocytes; format: cell-based; details: tested up to 100 μM
# migration (SAR, Table 4) = format: cell-based
smiles,measurement,setting,value
"Cc1cc(NC(=O)c2nc3[nH]c4c(c(=O)n3n2)CCC4)c(C)cc1NC(=O)CCc1nnc(-c2ccccc2)o1 [113B7, N-(2,5-dimethyl-4-(3-(5-phenyl-1,3,4-oxadiazol-2-yl)propanamido)phenyl)-8-oxo-5,6,7,8-tetrahydro-4H-cyclopenta[d][1,2,4]triazolo[1,5-a]pyrimidine-2-carboxamide]",EGFR activation,EGFR,did not have any effect
same,tumor burden in the lungs,RM1-Luc cells,significantly reduced the tumor burden in the lungs
same,dissociation constant / affinity in words,[1]; NMR titration (and ITC),low micromolar range; also recorded: micromolar affinity
same,Kd,"[1]; NMR titration following backbone amide of residue 147, read-out: Kd values",21.4 ± 8.62 µM
same,Kd,"[1]; NMR titration, read-out: upper limit for the dissociation constant of the complex, Kd",< 10 µM
same,Binding affinity ranking,"[1]; chemical shift change (DPPM) of backbone amide of residue 147, 50 μM PDZ12, compound at 1:1 molar ratio",4 (4 for DPPM 0.06-0.08)
same,Kd,"[1]; estimated by NMR titration in 2D HSQC experiments (Table 4), read-out: Kd",~10 µM
same,toxicity / tolerability in vivo,[2],well-tolerated; also recorded: no apparent toxicity
same,size and weight of prostates,prostate adenocarcinoma,significantly less
same,toxicity to melanocytes,melanocytes,did not show any significant toxicity
same,% migr.,"migration (SAR, Table 4)",62%
